Data: EP1674467A1, “2,5- and 2,6-disubstituted benzazole derivatives useful as protein kinase inhibitors” (4SC AG, priority 2004, dated 2006)

Target: at least one kinase selected from Aurora-A, Aurora-B, EGF-R, ERBB2, PDGFR, IGF1-R, VEGF-R2, VEGF-R3, EPHB4, Tie2, and SRC
Test: 33PanQinase Activity Assay (protein kinase assay)
Type: biochemical, human
Conditions: on at least one kinase of the listed panel, or on at least two kinases from at least two different molecular mechanisms of tumor progression; 1 µM [γ-33P]-ATP, 30°C, 80 minutes
Experimental: The effect of the benzazole derivatives was tested on recombinant, human protein kinases. All protein kinases were expressed in Sf9 insect cells as human recombinant GST-fusion proteins or as His-tagged proteins by means of the baculovirus expression system. Protein kinases were purified by affinity chromatography using either GSH-agarose or Ni-NTH-agarose. The purity and identity of each was checked by SDS-PAGE/silver staining and by western blot analysis with specific antibodies.
A proprietary protein kinase assay (^33PanQinase® Activity Assay) was used for measuring the kinase activity. All kinase assays were performed in 96-well FlashPlates™ in a 50 µl reaction volume. The assay for all enzymes contained 60 mM HEPES-NaOH, pH 7.5, 3 mM MgCl2, 3 mM MnCl2, 3 µM Na-orthovanadate, 1.2 mM DTT, 50 µg/ml PEG20000 and 1 µM [γ-^33P]-ATP (approx. 5x10^5 cpm per well). The reaction cocktails were incubated at 30°C for 80 minutes. The reaction was stopped with 50 µl of 2% (v/v) H3PO4, plates were aspirated and washed two times with 200 µl of 0.9% (w/v) NaCl. Incorporation of ^33Pi was determined with a microplate scintillation counter. All assays were performed with a BeckmanCoulter/ Sagian robotic system.

IC50 | SMILES
< 500 nM | COc1cc2ncnc(Nc3nc4ccc(NC(=O)c5cccc(OC(F)(F)F)c5)cc4s3)c2cc1OC [Example 11, N-[2-(6,7-Dimethoxyquinazolin-4-ylamino)-benzothiazol-6-yl]-3-trifluoromethoxybenzamide]
< 500 nM | COc1cc2ncnc(Nc3nc4ccc(NC(=O)Nc5ccccc5)cc4s3)c2cc1OC [Example 12, 1-[2-(6,7-Dimethoxyquinazolin-4-ylamino)benzothiazol-6-yl]-3-phenylurea]
< 500 nM | COc1cc2ncnc(Nc3nc4ccc(NC(=O)Nc5cccc(F)c5)cc4s3)c2cc1OC [Example 14, 1-[2-(6,7-Dimethoxyquinazolin-4-ylamino)benzothiazol-6-yl]-3-(3-fluorophenyl)urea]
< 500 nM | COc1cc2ncnc(Nc3nc4ccc(NC(=O)Nc5cccc(C(F)(F)F)c5)cc4s3)c2cc1OC [Example 15, 1-[2-(6,7-Dimethoxyquinazolin-4-ylamino)benzothiazol-6-yl]-3-(3-trifluoromethylphenyl)urea]
< 500 nM | COc1cc2ncnc(Nc3nc4ccc(NC(=O)Nc5ccc(Cl)c(C(F)(F)F)c5)cc4s3)c2cc1OC [Example 18, 1-(4-Chloro-3-trifluoromethylphenyl)-3-[2-(6,7-dimethoxyquinazolin-4-yl-amino)benzothiazol-6-yl]urea]
< 500 nM | COc1cc2c(Nc3nc4ccc(NC(=O)Nc5ccc(Cl)c(C(F)(F)F)c5)cc4s3)ncnc2cc1OCCCN1CCN(C)CC1 [Example 19, 1-(4-Chloro-3-trifluoromethylphenyl)-3-(2-{6-methoxy-7-[3-(4-methylpiperazin-1-yl)-propoxy]quinazolin-4-ylamino}benzothiazol-6-yl)urea]
< 500 nM | COc1cc2ncnc(Nc3nc4cc(NC(=O)Nc5ccc(Cl)c(C(F)(F)F)c5)ccc4s3)c2cc1OC [Example 20, 1-(4-Chloro-3-trifluoromethylphenyl)-3-[2-(6,7-dimethoxyquinazolin-4-yl-amino)benzothiazol-5-yl]urea]
